Values of other authors in patent US20140302178A1, “Natural Product for Decreasing Symptoms During Viral Infections” (priority 2013, published 2014).

Test system: Herpes Simplex Virus (HSV)
Conditions: oral antiviral therapy; pooled meta-analysis

SMILES | decrease of outbreak duration and the associated pain [days]
Nc1nc2c(ncn2COCCO)c(=O)[nH]1 [aciclovir] | 1
CC(=O)OCC(CCn1cnc2cnc(N)nc21)COC(C)=O [famciclovir] | 1
CC(C)[C@H](N)C(=O)OCCOCn1cnc2c(=O)[nH]c(N)nc21 [valaciclovir] | 1
